{"source": "patent EP0302423A2", "about": "“1-Phenyl-3-(1-piperazinyl)-1h-indazoles, a process and intermediates for their preparation, and the use thereof as medicaments” (HOECHST-ROUSSEL PHARMACEUTICALS INCORPORATED, priority 1987, dated 1989)", "format_in_all_cases": "in vivo", "key": {"mice [1]": {"tested_on": "mice", "test": "phenyl-p-benzoquinone writhing assay in mice (analgesia)", "conditions": "Mus musculus, sc"}, "male mouse": {"tested_on": "male mouse", "test": "supramaximal electroshock (SES) assay (anticonvulsant activity)", "conditions": "for ED50: ip, read-out: ANTICONVULSANT ACTIVITY (% Inhibition of Convulsion) ED50 (mg/kg,i.p.)"}, "mice [2]": {"tested_on": "mice", "test": "tetrabenazine induced ptosis assay in mice (antidepressant activity)", "conditions": "for ED50: Mus musculus, ip, i.p. dose effecting calculated 50% inhibition of tetrabenazine-induced ptosis in mice, read-out: ANTI-DEPRESSANT ACTIVITY (% Inhibition of Ptosis) ED50 (mg/kg,i.p.)", "description": "In this procedure, male mice (Charles River, CD-1), weighing about 20 to 39 g, are used in test groups of five animals. Test compounds are dissolved, or suspended with 1 drop of Tween-80, in distilled water and administered to the animals in volumes of 10 cc per kg of body weight. […] Tetrabenazine solution and the solvent used to dissolve, or suspend, the test compounds are administered by the same route and at the same intervals as the test compounds to a control group. […] The total score for each group of 5 animals will therefore vary from 0 to 20; these scores are used as the indications of the activity of the test compound. The vehicle-control group score is used as a determinate of the validity of each test."}, "[3]": {"conditions": "read-out: ANALGESIC ACTIVITY (% Inhibition of Writhing) ED50 (mg/kg)"}, "[4]": {"conditions": "calculated s.c. dose effecting approximately 50% inhibition of writhing in mice, at peak time, read-out: ANALGESIC ACTIVITY (% Inhibition of Writhing) ED50"}, "[5]": {"conditions": "male mouse, at peak activity time, protection against extensor tonus"}}, "note": "Structures can show the parent of a compound that is named as a salt. Where two headings read alike, the source gives them in different places."}
{"smiles": "CC(C)=CCN1CCC2(C)c3cc(O)ccc3CC1C2C", "note": "(centres unmarked) [pentazocine, reference compound]", "values": [{"measurement": "ED50", "setting": "mice [1]; [3]", "result": 1.3, "unit": "mg/kg"}]}
{"smiles": "c1ccc(-n2nc(N3CCNCC3)c3ccccc32)cc1", "note": "[1-Phenyl-3-(1-piperazinyl)-1H-indazole hydrocloride]", "values": [{"measurement": "% inhibition of convulsions at indicated dosage", "setting": "male mouse; 60 mg/kg, i.p., male mouse", "result": 100, "unit": "% @ 60 mg/kg*"}, {"measurement": "ED50", "setting": "mice [1]; [4]", "result": 0.7, "unit": "mg/kg"}, {"measurement": "ED50", "setting": "mice [2]", "result": 25.4, "unit": "mg/kg"}]}
{"smiles": "CP(C)(=O)CN1CCN(c2nn(-c3ccccc3)c3ccccc23)CC1", "note": "[3-[4-(Dimethylphosphinylmethyl)-1-piperazinyl]-1-phenyl-1H-indazole]", "values": [{"measurement": "ED50", "setting": "male mouse; [5]", "result": 24.3, "unit": "mg/kg"}]}
{"smiles": "CN1CCN(c2nn(-c3ccc(F)cc3)c3ccccc23)CC1.O=C(O)/C=C/C(=O)O", "note": "[1-(4-Fluorophenyl)-3-(4-methyl-1-piperazinyl)-1H-indazole fumarate]", "values": [{"measurement": "ED50", "setting": "male mouse; [5]", "result": 12.9, "unit": "mg/kg"}, {"measurement": "ED50", "setting": "mice [1]; [4]", "result": 0.8, "unit": "mg/kg"}, {"measurement": "% inhibition of ptosis at indicated screening dosage (i.p.)", "setting": "mice [2]; 20 mg/kg, i.p., mice", "result": 65, "unit": "% @ 20 mg/kg*"}]}
{"smiles": "CN(C)CCCN1c2ccccc2CCc2ccccc21", "note": "[imipramine, reference compound]", "values": [{"measurement": "ED50", "setting": "mice [2]; read-out: ANTI-[…] (% Inhibition of Ptosis) ED50 (mg/kg,i.p.)", "result": 1.3, "unit": "mg/kg"}]}
{"smiles": "CN1CCN(c2nn(-c3ccccc3)c3ccccc23)CC1.Cl", "note": "[1-Phenyl-3-(4-methyl-1-piperazinyl)-1H-indazole hydrochloride]", "values": [{"measurement": "ED50", "setting": "male mouse; [5]", "result": 14.6, "unit": "mg/kg"}, {"measurement": "ED50", "setting": "mice [1]; [4]", "result": 1.6, "unit": "mg/kg"}, {"measurement": "ED50", "setting": "mice [2]", "result": 11.1, "unit": "mg/kg"}]}
{"smiles": "Fc1ccc(-n2nc(N3CCNCC3)c3ccccc32)cc1", "note": "[1-(4-Fluorophenyl)-3-(1-piperazinyl)-1H-indazole]", "values": [{"measurement": "ED50", "setting": "mice [2]", "result": 17.3, "unit": "mg/kg"}]}
{"smiles": "NC(=O)N1CCN(c2nn(-c3ccc(F)cc3)c3ccccc23)CC1", "note": "[4-[1-(4-Fluorophenyl)-1H-indazol-3-yl]-1-piperazine carboxamide]", "values": [{"measurement": "ED50", "setting": "male mouse; [5]", "result": 22.7, "unit": "mg/kg"}]}
{"smiles": "NC(=O)N1CCN(c2nn(-c3ccccc3Cl)c3ccccc23)CC1", "note": "[4-[1-(2-chlorophenyl)-1H-indazol-3-yl]-1-piperazine carboxamide hemifumarate]", "values": [{"measurement": "ED50", "setting": "male mouse; [5]", "result": 38.9, "unit": "mg/kg"}]}
{"smiles": "CN1CCN(c2nn(-c3ccc(C(F)(F)F)cc3)c3ccccc23)CC1.O=C(O)/C=C/C(=O)O", "note": "[3-(4-Methyl-1-piperazinyl)-1-[4-(trifluoromethyl)phenyl]-1H-indazole fumarate]", "values": [{"measurement": "ED50", "setting": "male mouse; [5]", "result": 27, "unit": "mg/kg"}]}
{"smiles": "CCC1(c2ccccc2)C(=O)NC(=O)NC1=O", "note": "[phenobarbitol, reference compound]", "values": [{"measurement": "ED50", "setting": "male mouse; Mus musculus", "result": 8.4, "unit": "mg/kg"}]}
{"smiles": "CCN1CCN(c2nn(-c3ccc(C(F)(F)F)cc3)c3ccccc23)CC1", "note": "[3-(4-Ethyl-1-piperazinyl)-1-[4-trifluoromethyl)phenyl]-1H-indazole fumarate]", "values": [{"measurement": "ED50", "setting": "male mouse; [5]", "result": 8.2, "unit": "mg/kg"}]}
{"smiles": "CN(C)CCC=C1c2ccccc2CCc2ccccc21", "note": "[amitriptyline, reference compound]", "values": [{"measurement": "ED50", "setting": "mice [2]", "result": 1.5, "unit": "mg/kg"}]}
{"smiles": "CCC(=O)O[C@](Cc1ccccc1)(c1ccccc1)[C@H](C)CN(C)C", "note": "[propoxyphene, reference compound]", "values": [{"measurement": "ED50", "setting": "mice [1]; [3]", "result": 3.9, "unit": "mg/kg"}]}
